Assay results from ChEMBL document CHEMBL4390652, “Design, biological evaluation and X-ray crystallography of nanomolar multifunctional ligands targeting simultaneously acetylcholinesterase and glycogen synthase kinase-3” (Eur J Med Chem, 2019).
pIC50: −log10 of the molar value.

How the values were obtained:
[1] = target: Serine/threonine-protein kinase PLK3 (Homo sapiens) (UniProt Q9H4B4); experiment: Binding affinity to wild-type human partial length PLK3 (A42 to L334 residues) expressed in mammalian expression system assessed as residual binding level at 10 uM by Kinomescan method relative to control
[2] = target: Mitogen-activated protein kinase kinase kinase kinase 5 (Homo sapiens) (UniProt Q9Y4K4); experiment: Binding affinity to wild-type human partial length MAP4K5 (M1 to P297 residues) expressed in bacterial expression system assessed as residual binding level at 10 uM by Kinomescan method relative to control
[3] = target: Testis-specific serine/threonine-protein kinase 3 (Homo sapiens) (UniProt Q96PN8); experiment: Binding affinity to wild-type human full length TSSK3 (M1 to T268 residues) expressed in mammalian expression system assessed as residual binding level at 10 uM by Kinomescan method relative to control
[4] = target: Ribosomal protein S6 kinase alpha-4 (Homo sapiens) (UniProt O75676); experiment: Binding affinity to wild-type human partial length N-terminal RPS6KA4 kinase domain 1 expressed in bacterial expression system assessed as residual binding level at 10 uM by Kinomescan method relative to control
[5] = target: Interleukin-1 receptor-associated kinase 3 (Homo sapiens) (UniProt Q9Y616); experiment: Binding affinity to wild-type human partial length IRAK3 (V147 to E596 residues) expressed in bacterial expression system assessed as residual binding level at 10 uM by Kinomescan method relative to control
[6] = target: Serine/threonine-protein kinase WNK1 (Homo sapiens) (UniProt Q9H4A3); experiment: Binding affinity to wild-type human partial length WNK1 (Q194 to A490 residues) expressed in mammalian expression system assessed as residual binding level at 10 uM by Kinomescan method relative to control
[7] = target: Serine/threonine-protein kinase BRSK2 (Homo sapiens) (UniProt Q8IWQ3); experiment: Binding affinity to wild-type human full length BRSK2 (M1 to L674 residues) expressed in bacterial expression system assessed as residual binding level at 10 uM by Kinomescan method relative to control
[8] = target: NUAK family SNF1-like kinase 1 (Homo sapiens) (UniProt O60285); experiment: Binding affinity to wild-type human partial length ARK5 (E25 to I332 residues) expressed in bacterial expression system assessed as residual binding level at 10 uM by Kinomescan method relative to control
[9] = target: Cyclin-dependent kinase 11B (Homo sapiens) (UniProt P21127); experiment: Binding affinity to wild-type human partial length CDC2L1 (P353 to G692 residues) expressed in bacterial expression system assessed as residual binding level at 10 uM by Kinomescan method relative to control
[10] = target: Serine/threonine-protein kinase MRCK gamma (Homo sapiens) (UniProt Q6DT37); experiment: Binding affinity to wild-type human partial length DMPK2 (S46 to S408 residues) expressed in bacterial expression system assessed as residual binding level at 10 uM by Kinomescan method relative to control
[11] = target: Protein-tyrosine kinase 2-beta (Homo sapiens) (UniProt Q14289); experiment: Binding affinity to wild-type human full length PYK2 (M1 to E967 residues) expressed in bacterial expression system assessed as residual binding level at 10 uM by Kinomescan method relative to control
[12] = target: Serine/threonine-protein kinase N2 (Homo sapiens) (UniProt Q16513); experiment: Binding affinity to wild-type human partial length PKN2 (E634 to C984 residues) expressed in bacterial expression system assessed as residual binding level at 10 uM by Kinomescan method relative to control
[13] = target: Tyrosine-protein kinase JAK2 (Homo sapiens) (UniProt O60674); experiment: Binding affinity to wild-type human partial length JAK2 JH1 catalytic domain (A829 to G1132 residues) expressed in mammalian expression system assessed as residual binding level at 10 uM by Kinomescan method relative to control
[14] = target: Calcium/calmodulin-dependent protein kinase type II subunit delta (Homo sapiens) (UniProt Q13557); experiment: Binding affinity to wild-type human partial length CAMK2D (M1 to E329 residues) expressed in bacterial expression system assessed as residual binding level at 10 uM by Kinomescan method relative to control
[15] = target: Cyclin-G-associated kinase (Homo sapiens) (UniProt O14976); experiment: Binding affinity to wild-type human partial length GAK (G13 to Y338 residues) expressed in bacterial expression system assessed as residual binding level at 10 uM by Kinomescan method relative to control
[16] = target: Dual specificity protein kinase CLK4 (Homo sapiens) (UniProt Q9HAZ1); experiment: Binding affinity to wild-type human partial length CLK4 (R135 to K481 residues) expressed in bacterial expression system assessed as residual binding level at 10 uM by Kinomescan method relative to control
[17] = target: Mitogen-activated protein kinase 10 (Homo sapiens) (UniProt P53779); experiment: Binding affinity to wild-type human partial length JNK3 (V28 to Q422 residues) expressed in mammalian expression system assessed as residual binding level at 10 uM by Kinomescan method relative to control
[18] = target: Tyrosine-protein kinase SYK (Homo sapiens) (UniProt P43405); experiment: Binding affinity to wild-type human partial length SYK (D354 to N635 residues) expressed in bacterial expression system assessed as residual binding level at 10 uM by Kinomescan method relative to control
[19] = target: Tyrosine-protein kinase ABL2 (Homo sapiens) (UniProt P42684); experiment: Binding affinity to wild-type human ABL2 (A248 to G542 residues) expressed in bacterial expression system assessed as residual binding level at 10 uM by Kinomescan method relative to control
[20] = target: Tyrosine-protein kinase Yes (Homo sapiens) (UniProt P07947); experiment: Binding affinity to wild-type human partial length YES (T257 to L543 residues) expressed in bacterial expression system assessed as residual binding level at 10 uM by Kinomescan method relative to control
[21] = target: Cyclin-dependent kinase 5 (Homo sapiens) (UniProt Q00535); experiment: Binding affinity to wild-type human full length CDK5 (M1 to P292 residues) expressed in bacterial expression system assessed as residual binding level at 10 uM by Kinomescan method relative to control
[22] = target: Mitogen-activated protein kinase kinase kinase 11 (Homo sapiens) (UniProt Q16584); experiment: Binding affinity to wild-type human partial length MLK3 (I77 to W399 residues) expressed in bacterial expression system assessed as residual binding level at 10 uM by Kinomescan method relative to control
HCT-116 = experiment: Cytotoxicity against human HCT116 cells assessed as growth inhibition incubated for 48 hrs by Hoechst 33342 staining based assay; format: cell-based; conditions: HCT-116, 48 h
[23] = target: Fibroblast growth factor receptor 1 (Homo sapiens) (UniProt P11362); experiment: Binding affinity to wild-type human partial length FGFR1 (P357 to V669 residues) expressed in bacterial expression system assessed as residual binding level at 10 uM by Kinomescan method relative to control
[24] = target: Serine/threonine-protein kinase DCLK1 (Homo sapiens) (UniProt O15075); experiment: Binding affinity to wild-type human partial length DCAMKL1 (L270 to A662 residues) expressed in mammalian expression system assessed as residual binding level at 10 uM by Kinomescan method relative to control
Serine/threonine-protein kinase DCLK1 (Homo sapiens), sequence (O15075 whole entry, the tested form may be a part): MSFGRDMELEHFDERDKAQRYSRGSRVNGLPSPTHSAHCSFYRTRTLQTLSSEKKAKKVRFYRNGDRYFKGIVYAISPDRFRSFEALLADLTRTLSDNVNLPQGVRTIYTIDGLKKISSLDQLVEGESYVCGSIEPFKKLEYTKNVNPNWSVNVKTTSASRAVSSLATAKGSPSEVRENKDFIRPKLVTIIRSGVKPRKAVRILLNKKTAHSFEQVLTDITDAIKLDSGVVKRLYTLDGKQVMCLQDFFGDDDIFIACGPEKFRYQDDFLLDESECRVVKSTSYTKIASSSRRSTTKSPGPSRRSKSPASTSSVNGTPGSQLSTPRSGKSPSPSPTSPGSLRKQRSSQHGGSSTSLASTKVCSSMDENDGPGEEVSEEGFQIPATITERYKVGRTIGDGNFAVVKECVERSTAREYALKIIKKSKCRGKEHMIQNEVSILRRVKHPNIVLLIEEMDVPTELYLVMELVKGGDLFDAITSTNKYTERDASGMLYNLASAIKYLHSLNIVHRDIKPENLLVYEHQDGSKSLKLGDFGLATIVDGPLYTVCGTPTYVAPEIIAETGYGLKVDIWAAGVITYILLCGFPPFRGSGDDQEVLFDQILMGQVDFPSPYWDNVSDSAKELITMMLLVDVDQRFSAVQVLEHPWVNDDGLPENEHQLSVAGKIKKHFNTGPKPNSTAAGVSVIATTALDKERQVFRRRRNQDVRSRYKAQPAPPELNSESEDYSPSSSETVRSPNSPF

Mitogen-activated protein kinase kinase kinase kinase 5 (Homo sapiens), sequence (Q9Y4K4 whole entry, looked up, the tested form may be a part): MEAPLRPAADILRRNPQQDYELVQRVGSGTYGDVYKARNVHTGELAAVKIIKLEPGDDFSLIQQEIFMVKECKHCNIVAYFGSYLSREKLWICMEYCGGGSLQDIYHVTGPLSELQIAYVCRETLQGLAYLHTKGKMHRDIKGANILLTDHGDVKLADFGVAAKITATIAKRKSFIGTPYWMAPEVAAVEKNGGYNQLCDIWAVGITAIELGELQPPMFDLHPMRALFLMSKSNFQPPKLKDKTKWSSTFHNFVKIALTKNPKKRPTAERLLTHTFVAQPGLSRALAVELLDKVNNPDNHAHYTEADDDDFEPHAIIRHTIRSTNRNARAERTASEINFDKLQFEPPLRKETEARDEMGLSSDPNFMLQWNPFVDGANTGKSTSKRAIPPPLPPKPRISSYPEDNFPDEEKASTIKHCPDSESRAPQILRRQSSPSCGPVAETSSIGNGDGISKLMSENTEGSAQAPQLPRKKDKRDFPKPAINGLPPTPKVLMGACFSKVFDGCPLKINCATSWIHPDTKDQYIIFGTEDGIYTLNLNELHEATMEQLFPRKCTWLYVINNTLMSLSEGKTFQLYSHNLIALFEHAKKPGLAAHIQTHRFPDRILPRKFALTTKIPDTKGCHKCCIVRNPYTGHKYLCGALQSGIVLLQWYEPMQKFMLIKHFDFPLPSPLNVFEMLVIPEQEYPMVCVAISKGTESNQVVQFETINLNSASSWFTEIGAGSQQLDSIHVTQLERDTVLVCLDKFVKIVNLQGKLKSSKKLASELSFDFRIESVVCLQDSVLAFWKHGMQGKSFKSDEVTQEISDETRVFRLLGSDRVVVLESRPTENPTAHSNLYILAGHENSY
Protein-tyrosine kinase 2-beta (Homo sapiens), sequence (Q14289 whole entry, looked up, the tested form may be a part): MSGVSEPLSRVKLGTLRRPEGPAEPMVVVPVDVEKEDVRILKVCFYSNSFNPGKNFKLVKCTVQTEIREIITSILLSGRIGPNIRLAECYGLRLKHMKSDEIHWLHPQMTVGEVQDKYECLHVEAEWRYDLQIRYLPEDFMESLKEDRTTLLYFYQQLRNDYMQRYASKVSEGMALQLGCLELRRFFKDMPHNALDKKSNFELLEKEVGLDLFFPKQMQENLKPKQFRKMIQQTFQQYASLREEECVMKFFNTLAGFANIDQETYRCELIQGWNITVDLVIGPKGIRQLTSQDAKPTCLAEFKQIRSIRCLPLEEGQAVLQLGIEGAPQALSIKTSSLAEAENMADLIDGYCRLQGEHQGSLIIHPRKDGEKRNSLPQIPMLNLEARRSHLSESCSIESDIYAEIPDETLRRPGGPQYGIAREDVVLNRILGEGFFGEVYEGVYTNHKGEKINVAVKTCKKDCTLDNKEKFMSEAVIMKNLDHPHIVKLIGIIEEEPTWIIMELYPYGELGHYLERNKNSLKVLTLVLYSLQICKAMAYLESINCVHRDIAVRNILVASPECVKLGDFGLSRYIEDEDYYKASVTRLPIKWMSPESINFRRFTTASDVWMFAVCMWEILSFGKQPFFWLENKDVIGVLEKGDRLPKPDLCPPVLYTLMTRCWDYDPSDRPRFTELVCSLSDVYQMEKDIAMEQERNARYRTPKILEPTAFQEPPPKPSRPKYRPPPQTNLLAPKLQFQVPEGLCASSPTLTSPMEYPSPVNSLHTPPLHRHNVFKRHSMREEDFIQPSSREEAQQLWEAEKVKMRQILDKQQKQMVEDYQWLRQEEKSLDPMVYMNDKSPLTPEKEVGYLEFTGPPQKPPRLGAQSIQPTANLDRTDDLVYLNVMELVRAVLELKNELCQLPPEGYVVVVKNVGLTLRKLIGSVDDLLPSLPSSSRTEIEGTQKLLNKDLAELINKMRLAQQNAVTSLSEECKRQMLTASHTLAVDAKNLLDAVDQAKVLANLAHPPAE
Mitogen-activated protein kinase kinase kinase 11 (Homo sapiens), sequence (Q16584 whole entry, looked up, the tested form may be a part): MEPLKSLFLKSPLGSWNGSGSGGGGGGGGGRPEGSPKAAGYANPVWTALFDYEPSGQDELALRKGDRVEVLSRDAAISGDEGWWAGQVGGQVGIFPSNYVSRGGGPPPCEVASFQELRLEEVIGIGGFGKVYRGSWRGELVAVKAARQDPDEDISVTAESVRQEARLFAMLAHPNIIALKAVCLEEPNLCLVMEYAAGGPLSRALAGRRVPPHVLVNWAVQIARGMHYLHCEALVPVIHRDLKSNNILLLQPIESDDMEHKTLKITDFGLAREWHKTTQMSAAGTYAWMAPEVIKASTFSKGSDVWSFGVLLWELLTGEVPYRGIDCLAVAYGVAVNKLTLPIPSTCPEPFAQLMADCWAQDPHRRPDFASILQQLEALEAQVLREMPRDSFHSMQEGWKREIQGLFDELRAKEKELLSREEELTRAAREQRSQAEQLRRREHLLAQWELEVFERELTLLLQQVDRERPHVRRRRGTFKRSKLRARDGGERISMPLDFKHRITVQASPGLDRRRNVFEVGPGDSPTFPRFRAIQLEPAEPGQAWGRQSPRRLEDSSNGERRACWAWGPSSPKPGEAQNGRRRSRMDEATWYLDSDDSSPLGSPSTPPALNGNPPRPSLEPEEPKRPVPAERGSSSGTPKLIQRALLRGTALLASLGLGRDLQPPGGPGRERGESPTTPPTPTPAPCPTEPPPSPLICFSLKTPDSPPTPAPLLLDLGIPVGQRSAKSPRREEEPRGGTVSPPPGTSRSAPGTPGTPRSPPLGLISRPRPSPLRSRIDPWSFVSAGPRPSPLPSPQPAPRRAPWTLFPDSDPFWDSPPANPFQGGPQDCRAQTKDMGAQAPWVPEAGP
Cyclin-dependent kinase 5 (Homo sapiens), sequence (Q00535 whole entry, looked up, the tested form may be a part): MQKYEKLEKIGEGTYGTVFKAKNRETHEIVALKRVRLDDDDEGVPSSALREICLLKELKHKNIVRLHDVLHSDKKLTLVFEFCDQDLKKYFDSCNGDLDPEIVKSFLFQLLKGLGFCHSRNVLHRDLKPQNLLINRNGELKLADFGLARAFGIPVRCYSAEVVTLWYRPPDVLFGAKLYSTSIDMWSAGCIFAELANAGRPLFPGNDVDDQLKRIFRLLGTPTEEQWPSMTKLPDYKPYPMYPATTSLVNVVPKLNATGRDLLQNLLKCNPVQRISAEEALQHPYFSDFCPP
Tyrosine-protein kinase ABL2 (Homo sapiens), sequence (P42684 whole entry, the tested form may be a part): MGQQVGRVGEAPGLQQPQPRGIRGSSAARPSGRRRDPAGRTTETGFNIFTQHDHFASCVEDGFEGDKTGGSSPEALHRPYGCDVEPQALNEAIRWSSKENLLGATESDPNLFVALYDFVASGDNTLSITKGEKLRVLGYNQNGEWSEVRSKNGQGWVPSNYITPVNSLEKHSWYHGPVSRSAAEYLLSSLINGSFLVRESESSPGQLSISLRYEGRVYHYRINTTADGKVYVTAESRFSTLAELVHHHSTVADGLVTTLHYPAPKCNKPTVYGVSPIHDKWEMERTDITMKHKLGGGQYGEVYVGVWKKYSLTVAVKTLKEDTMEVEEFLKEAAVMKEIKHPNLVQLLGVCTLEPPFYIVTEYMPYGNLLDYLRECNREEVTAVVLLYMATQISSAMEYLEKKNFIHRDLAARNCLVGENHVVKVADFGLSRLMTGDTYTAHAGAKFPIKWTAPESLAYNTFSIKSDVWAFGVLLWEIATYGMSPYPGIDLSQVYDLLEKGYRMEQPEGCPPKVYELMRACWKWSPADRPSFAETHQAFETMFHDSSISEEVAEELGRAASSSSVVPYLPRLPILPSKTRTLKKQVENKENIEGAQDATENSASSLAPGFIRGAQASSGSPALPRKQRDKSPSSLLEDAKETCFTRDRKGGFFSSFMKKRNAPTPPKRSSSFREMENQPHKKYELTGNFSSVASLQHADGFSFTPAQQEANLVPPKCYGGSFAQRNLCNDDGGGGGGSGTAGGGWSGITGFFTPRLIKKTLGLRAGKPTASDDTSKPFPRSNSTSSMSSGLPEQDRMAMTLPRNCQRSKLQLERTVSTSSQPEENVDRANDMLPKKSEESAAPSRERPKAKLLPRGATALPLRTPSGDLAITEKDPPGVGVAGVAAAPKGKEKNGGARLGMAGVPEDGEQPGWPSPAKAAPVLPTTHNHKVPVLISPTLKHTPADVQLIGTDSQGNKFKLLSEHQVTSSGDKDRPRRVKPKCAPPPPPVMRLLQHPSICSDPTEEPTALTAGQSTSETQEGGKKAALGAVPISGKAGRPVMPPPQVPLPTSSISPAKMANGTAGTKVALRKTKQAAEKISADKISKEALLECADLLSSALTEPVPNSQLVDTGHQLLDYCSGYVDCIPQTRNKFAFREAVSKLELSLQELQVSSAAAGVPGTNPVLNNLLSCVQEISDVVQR

With `O=C(Nc1cc(-c2cn(CCNc3c4c(nc5ccccc35)CCCC4)nn2)ccn1)Nc1cccc2c1C1CCCCN1C2=O` (racemic) the Activity [1] was 77%, the Activity [2] was 25% and the Activity [3] was 100%. The Activity [4] was 22%, the Activity [5] was 16% and the Activity [6] was 100%. The Activity [7] was 70%, the Activity [8] was 0.85% and the Activity [9] was 99%. It also gave an Activity [10] of 100%, an Activity [11] of 74% and an Activity [12] of 4.8%. The Activity [13] was 21%, the Activity [14] was 80% and the Activity [15] was 19%. It also gave an Activity [16] of 2.8%, an Activity [17] of 1.3% and an Activity [18] of 91%. For the same molecule, the Activity [19] was 22%, the Activity [20] was 76% and the Activity [21] was 35%. The Activity [22] was 58%, the pIC50 (HCT-116) was 5.52 and the Activity [23] was 27%. For the same molecule, the Activity [24] was 82%.
